{"source": "patent US6902881B2", "about": "“Compounds and methods for regulating cell differentiation” (priority 2000, dated 2005)", "key": {"[1]": {"tested_on": "CEA content of HT 29 colon cancer cells", "assay": "CEA production by HT 29 cells (ELISA/IMx)", "type": "cell-based, human", "experimental": "Expression of differentiation markers. Carcinoembryogenic antigen in cell supernatants collected each three days was assayed by standard ELISA determinations using an IMX assay for quantitative measurement of the antigen. Cellular triacyl glycerol content was measured spectrophotometrically by enzymatic hydrolysis and analysis of the amount of glycerol released using a standard assay, Triglyceride (INT) 10 (Sigma Diagnostics). Cellular alkaline phosphatase activity was determined by measuring the fluorescence change induced by the hydrolysis of 4-methylumbelliferylphosphate. The fluorescence is detected at 450 nm with an excitation of 365 nm, using a Jobin Ivon-Spex Fluoro Max-2 fluorimeter. The alkaline phosphatase activity detected was expressed in units of μmol/mg protein/min.\nThe effects of biliverdine on cell proliferation and production of two differentiation markers, CEA and alkaline phosphatase activity, were analyzed, CEA was assayed by standard ELISA determinations while alkaline phosphatase activity was determined by measuring the fluorescence change induced by the hydrolysis of phosphate from 4-methylumbelliferylphosphate as follows. To measure CEA production, cell supernatants were collected at the first cycle of change of media (third day) and on day 12. […] This was diluted 1:1 and assayed for CEA using an Imx assay for quantitive measurement of the antigen. […]"}, "[2]": {"target": "T1, aryl hydrocarbon receptor (AhR) (Homo sapiens, UniProt P35869)", "T1 sequence (P35869 11-848)": "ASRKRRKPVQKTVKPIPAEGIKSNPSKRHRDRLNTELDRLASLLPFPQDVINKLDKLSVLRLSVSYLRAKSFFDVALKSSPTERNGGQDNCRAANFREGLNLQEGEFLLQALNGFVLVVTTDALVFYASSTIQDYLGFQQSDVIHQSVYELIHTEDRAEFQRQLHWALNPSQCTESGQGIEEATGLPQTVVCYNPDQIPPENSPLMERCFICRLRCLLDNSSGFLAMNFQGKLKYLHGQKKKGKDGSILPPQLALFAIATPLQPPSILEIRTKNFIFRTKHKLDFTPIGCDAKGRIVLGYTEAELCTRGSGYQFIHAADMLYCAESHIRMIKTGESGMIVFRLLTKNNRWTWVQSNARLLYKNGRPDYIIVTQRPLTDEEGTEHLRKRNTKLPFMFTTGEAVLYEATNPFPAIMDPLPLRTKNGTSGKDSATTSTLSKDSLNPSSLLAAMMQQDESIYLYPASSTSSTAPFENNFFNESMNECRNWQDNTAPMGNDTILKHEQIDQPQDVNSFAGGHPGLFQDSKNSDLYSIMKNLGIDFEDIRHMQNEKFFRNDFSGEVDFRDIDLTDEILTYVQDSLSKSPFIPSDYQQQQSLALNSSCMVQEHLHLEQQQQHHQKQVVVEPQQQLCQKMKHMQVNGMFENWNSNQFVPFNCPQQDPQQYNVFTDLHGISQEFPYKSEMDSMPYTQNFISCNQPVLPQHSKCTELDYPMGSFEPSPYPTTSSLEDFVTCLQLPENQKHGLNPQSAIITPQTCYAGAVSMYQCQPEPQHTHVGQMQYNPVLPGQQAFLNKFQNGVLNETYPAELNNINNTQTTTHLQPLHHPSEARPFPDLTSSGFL", "details": "μM range / concentrations used here (Phelan 1998); cited from earlier work"}, "[3]": {"tested_on": "control fertilized oocytes unexposed to UV light", "assay": "Development of control embryos unexposed to UV light incubated with the compounds (dysmorphogen test)", "details": "control fertilized oocytes unexposed to UV light incubated with the compound", "experimental": "(§1) Several hundred spawned eggs were fertilized in vitro and incubated at 16 to 18° C. […] The vegetal surfaces of some of these embryos were irradiated with one or the other sources of UV light within 10 min of fertilization for 20-30 min. […] The embryos were not disturbed, touched or tipped from the moment of fertilization, during UV irradiation or for the duration of development. […] A score of 5 defines a normal dorsal axis, 4 a microcephalic, 3 a cyclopic, 2 an anoptic, 1 an acephalic and 0 an adorsal embryo.\nThe biological activities of biliverdin and its derivatives were tested by adding each of them to the incubation solution of embryos after the termination of the UV light exposure to either 254 or 366 nm UV light and at selected time periods between T ƒfm=0.4-2.5. Final concentrations of biliverdin ranged from 0.05 to 5 μM in less than 1% ethanol. […] The extent of dorsal axis formation was analyzed by the morphological criteria described above.\nStage 1 embryos were exposed to UV-light source emitting at 366 nm (Mineralight UVSL-58, Ultraviolet Products, Inc., San Gabriel, Calif.) as described and then incubated in the presence of pure candidate DCD or commercially available biliverdin (Sigma-Aldrich, St. Louis, Mo.) at final concentrations from 0.05 to 1.2 μM in less than 1% ethanol. The concentrations were calculated using a molar extinction coefficient of 51,000. […]"}, "[4]": {"tested_on": "UV-irradiated Xenopus laevis stage 1 embryos", "assay": "Rescue of dorsal axis formation in UV-irradiated embryos, scored by dorsal anterior index (DAI)", "type": "in vivo", "experimental": "as §1\nThe biological activities of biliverdin and its derivatives were tested by adding each of them to the incubation solution of embryos after the termination of the UV light exposure to either 254 or 366 nm UV light and at selected time periods between T ƒfm=0.4-2.5. Final concentrations of biliverdin ranged from 0.05 to 5 μM in less than 1% ethanol. […] An extinction coefficient of 51,000 was utilized to calculate their concentrations. All petri dishes were covered with aluminum foil to avoid light exposure. The extent of dorsal axis formation was analyzed by the morphological criteria described above.\nStage 1 embryos were exposed to UV-light source emitting at 366 nm (Mineralight UVSL-58, Ultraviolet Products, Inc., San Gabriel, Calif.) as described and then incubated in the presence of pure candidate DCD or commercially available biliverdin (Sigma-Aldrich, St. Louis, Mo.) at final concentrations from 0.05 to 1.2 μM in less than 1% ethanol. The concentrations were calculated using a molar extinction coefficient of 51,000. One group of embryos was not exposed to UV light but was incubated in the presence of 0.5 μM of candidate DCD."}, "[5]": {"tested_on": "retinoid signaling system (RAR or RXR)", "assay": "Use of the retinoid signaling system"}, "[6]": {"details": "UV exposed embryos incubated with the intact tetrapyrrole"}}, "data": [{"smiles": "C=CC1=C(C)/C(=C/C2=NC(=C\\c3[nH]c(/C=C4\\NC(=O)C(C)=C4C=C)c(C)c3CCC(=O)O)/C(CCC(=O)O)=C2C)NC1=O", "note": "[Biliverdin, biliverdin IXα]", "values": [{"measurement": "CEA secreted into the medium", "setting": "[1]; HT 29, by days 9-12 of exposure, constitutive slightly below 3", "result": "over 80 ng/ml/10^6 cells"}, {"measurement": "overproduction of the differentiation marker CEA", "setting": "[1]; HT 29, quiescent proliferative period days 3-40", "result": "> 25", "unit": "fold"}, {"measurement": "activation of the aryl hydrocarbon receptor", "setting": "[2]", "result": "binds and is activated"}, {"measurement": "average DAI of control embryos", "setting": "[3]", "result": 5}, {"measurement": "embryos scored with a DAI between 5-4", "setting": "[4]; 254 nm UV light, treated with biliverdin", "result": "About 51%"}, {"measurement": "concentration at which plateau of recovery is reached", "setting": "[4]; 254 or 366 nm UV light, FIG. 3C", "result": 1.2, "unit": "µM"}, {"measurement": "recovery of dorsal axial structures", "setting": "[4]; 254 or 366 nm UV-irradiated embryos, μM amounts", "result": "recover to form dorsal axial structures"}, {"measurement": "embryos that recover and are scored with 4-5", "setting": "[4]; 366 nm UV light, incubated with biliverdin", "result": "~55", "unit": "%"}, {"measurement": "embryos that do not develop dorsal structures, DAI of 0", "setting": "[4]; [6]", "result": "20 to 30", "unit": "%"}, {"measurement": "tadpoles that develop with DAI scores of 5 or 4", "setting": "[4]; [6]", "result": "About 55%"}, {"measurement": "degree of recovery of dorsal axis formation relative to oocyte biliverdin", "setting": "[4]; UV-irradiated embryos, FIG. 2E", "result": "comparable"}, {"measurement": "Average DAI score", "setting": "[4]; embryos irradiated with 254 nm UV light, treated with biliverdin, DAI 5 normal, 0 adorsal", "result": 2.72}, {"measurement": "Average DAI score", "setting": "[4]; embryos irradiated with 366 nm UV light, incubated with biliverdin, total population", "result": 3.08}, {"measurement": "use of the retinoid signaling system (RAR or RXR)", "setting": "[5]", "result": "does not use"}]}]}
